Key:
[1] = molecular target: T1, photosensory core of AsphyA (66-610) (Avena sativa, UniProt P06593); experiment: Photoaffinity labelling of the photosensory core with 8-azido-ATP and competition by unlabeled ATP; type: binding; settings: 10 μM 8-azido-ATP
T1 construct: the PAS-GAF-PHY photosensory core (66–610aa) were also cloned into pPIC3.5K; made in house; host or cells: Pichia pastoris GS115
T1 sequence (P06593 66-610): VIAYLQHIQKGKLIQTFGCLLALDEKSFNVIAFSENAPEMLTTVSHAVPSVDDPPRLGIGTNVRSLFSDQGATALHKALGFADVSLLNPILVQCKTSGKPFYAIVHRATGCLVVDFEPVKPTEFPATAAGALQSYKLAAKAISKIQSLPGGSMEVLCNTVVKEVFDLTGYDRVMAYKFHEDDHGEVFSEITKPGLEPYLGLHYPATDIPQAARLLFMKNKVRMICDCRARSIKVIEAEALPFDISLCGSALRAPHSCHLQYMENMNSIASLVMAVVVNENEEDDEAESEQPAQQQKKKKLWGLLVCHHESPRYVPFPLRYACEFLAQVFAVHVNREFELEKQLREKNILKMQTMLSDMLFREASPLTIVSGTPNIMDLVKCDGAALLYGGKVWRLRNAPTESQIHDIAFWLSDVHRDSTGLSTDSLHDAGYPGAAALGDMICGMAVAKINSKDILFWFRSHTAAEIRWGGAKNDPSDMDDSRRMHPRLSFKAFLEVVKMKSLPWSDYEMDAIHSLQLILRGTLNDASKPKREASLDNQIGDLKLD
Procedure: To investigate ATP-binding to AsphyA proteins, photoaffinity labelling experiments were carried out using 8-N3-ATP-biotin-long chain-hydrazone (8-azido-ATP), which were purchased from Affinity Labeling Technologies, Inc. Purified phytochrome proteins (1.0 μg) were pre-incubated for 30 min on ice in 50 μl of photoaffinity labelling buffer (20 mM Tris-HCl, pH 7.0, 2 mM EDTA, 2 mM MgCl2 and 150 μM ATP), and then 8-azido-ATP was applied with indicated concentrations. After incubation for 5 more min on ice, ultraviolet light at 254 nm was then irradiated for 90 s using a hand-held ultraviolet lamp at 4 cm from the surface of the reaction mixtures. Immediately after photoaffinity labelling, reactions were stopped by adding SDS sample buffer, and the 8-azido-ATP-labelled phytochromes were detected with 1:2,000 avidin-HRP (A-115, Boston Biochem). After development, the images were scanned and opened by ImageJ, a Java-based image-processing software, to quantitate the photoaffinity labelling with azido-ATP analogues. Background signal was subtracted before normalization. […]
Supplementary Figure 11. […] 8-azido-ATP labeled proteins were then detected using avidin-HRP. […] The band intensities were quantified using ImageJ software, and the percentages of 8-azido-ATP labeling were normalized to the 66-610 protein signals. […]

[2] = molecular target: T2, PAS-GAF-PHY photosensory core of AsphyA (66-610aa) (Avena sativa, UniProt P06593 66-610, phycocyanobilin chromophore assembled (chromophore-binding site C322)); experiment: pull-down; GST/strep-fused interacting protein (1.0 μg) held on glutathione resin, phytochrome (1.0 μg) in solution, Pr and Pfr forms both tested; 60 min at 4 °C in pull-down buffer (100 mM Tris-HCl pH 7.8, 1 mM EDTA, 150 mM NaCl, 100 μg/ml BSA); western blot with oat22 and anti-GST; settings: both partners purified
T2 construct: Avena sativa phytochrome A, residues 66-610 (PAS-GAF-PHY photosensory core); also called the photosensory core; source: phycocyanobilin added in vitro
T2 sequence (looked up): T1 sequence (P06593 66-610)

8-N3-ATP-biotin-long chain-hydrazone [8-azido-ATP]
photoaffinity labelling of the photosensory core ([1]; UV 90 s, Pr and Pfr forms): labelled

Nc1ncnc2c1ncn2[C@@H]1O[C@H](COP(=O)(O)OP(=O)(O)OP(=O)(O)O)[C@@H](O)[C@H]1O [ATP]
concentration of unlabeled ATP that inhibited 8-azido-ATP photoaffinity labeling ([1]; unlabeled ATP 0-30 mM): approximately 7.5 mM

B1: GST/strep-fused PIF3 (natural protein, UniProt O80536 1-524, looked up)
chain: MPLFELFRLTKAKLESAQDRNPSPPVDEVVELVWENGQISTQSQSSRSRNIPPPQANSSRAREIGNGSKTTMVDEIPMSVPSLMTGLSQDDDFVPWLNHHPSLDGYCSDFLRDVSSPVTVNEQESDMAVNQTAFPLFQRRKDGNESAPAASSSQYNGFQSHSLYGSDRARDLPSQQTNPDRFTQTQEPLITSNKPSLVNFSHFLRPATFAKTTNNNLHDTKEKSPQSPPNVFQTRVLGAKDSEDKVLNESVASATPKDNQKACLISEDSCRKDQESEKAVVCSSVGSGNSLDGPSESPSLSLKRKHSNIQDIDCHSEDVEEESGDGRKEAGPSRTGLGSKRSRSAEVHNLSERRRRDRINEKMRALQELIPNCNKVDKASMLDEAIEYLKSLQLQVQIMSMASGYYLPPAVMFPPGMGHYPAAAAAMAMGMGMPYAMGLPDLSRGGSSVNHGPQFQVSGMQQQPVAMGIPRVSGGGIFAGSSTIGNGSTRDLSGSKDQTTTNNNSNLKPIKRKQGSSDQFCGSS
notes: Probably Arabidopsis PIF3, as PIF1 and PIF4 are called Arabidopsis; not shown: GST, N-terminal, kept
binding result [2]: binds
